For 51 compounds, IC50 results are on record in ChEMBL document CHEMBL5729561, “Compounds and uses thereof” (2023).

This test can be described thus: On day 0 cells were seeded in 30 μL media into each well of 384-well cell culture plates. The seeding density was 8000 cells/well. On day 1, cells were treated with 30 nL DMSO or 30 nL of 3-fold serially DMSO-diluted compounds (10 points in duplicates with 1 μM as final top dose). Subsequently plates were incubated for 6 hours in a standard tissue culture incubator and equilibrated at room temperature for 15 minutes. Nanoluciferase activity was measured by adding 15 μL of freshly prepared Nano-Glo Luciferase Assay Reagent (Promega N1130), shaking the plates for 10 minutes and reading the bioluminescence using an EnVision reader. It is filed as cell-based.
For the compound `COc1cc(-c2cn(C)c(=O)c3cnccc23)cc(OC)c1CN1CC(CC(=O)NCCCCCCCCNc2cccc3c2C(=O)N(C2CCC(=O)NC2=O)C3=O)C1` (stereo unspecified), the IC50 is under 0.01 µM. As for `COc1cc(-c2cn(C)c(=O)c3cnccc23)cc(OC)c1CN1CC(C(=O)NCCS(=O)(=O)CCNc2cccc3c2C(=O)N(C2CCC(=O)NC2=O)C3=O)C1` (stereo unspecified), the IC50 entry is “in the range around 0.055 µM”. Compound `COc1cc(-c2cn(C)c(=O)c3cnccc23)cc(OC)c1CN1CC(C(=O)N(C)CCCCCCCCNc2cccc3c2C(=O)N(C2CCC(=O)NC2=O)C3=O)C1` (stereo unspecified) had an IC50 of under 0.01 µM. On to `COc1cc(-c2cn(C)c(=O)c3cnccc23)cc(OC)c1CN(C)CC12CC(C(=O)NCCCCCNc3cccc4c3C(=O)N(C3CCC(=O)NC3=O)C4=O)(C1)C2` (stereo unspecified), for which the half-maximal inhibitory concentration (IC50) is under 0.01 µM. As to `COc1cc(-c2cn(C)c(=O)c3cnccc23)cc(OC)c1CN(C)CC(=O)N1CCC(C2CCN(C(=O)COc3cccc4c3C(=O)N(C3CCC(=O)NC3=O)C4=O)CC2)CC1` (stereo unspecified), the IC50 result is “in the range around 0.055 µM”.

Consider `COc1cc(-c2cn(C)c(=O)c3cnccc23)cc(OC)c1CN1CC[C@H]1C(=O)NCCCCCCCCNc1cccc2c1C(=O)N(C1CCC(=O)NC1=O)C2=O` (stereo partly specified), for which the IC50 was under 0.01 µM. In turn, `COc1cc(-c2cn(C)c(=O)c3cnccc23)cc(OC)c1CN1CCN(C(=O)CCCCOc2cccc3c2C(=O)N(C2CCC(=O)NC2=O)C3=O)CC1` (stereo unspecified) registered an IC50 of under 0.01 µM.

In the case of `COc1cc(-c2cn(C)c(=O)c3cnccc23)cc(OC)c1CN(C)CC12CC(C(=O)NCCOCCOCCNc3cccc4c3C(=O)N(C3CCC(=O)NC3=O)C4=O)(C1)C2` (stereo unspecified), the 50% inhibitory concentration (IC50) result is “in the range around 0.55 µM”. Consider `COc1cc(-c2cn(C)c(=O)c3cnccc23)cc(OC)c1CN1CC[C@H]1C(=O)NCCN(C)CCNc1cccc2c1C(=O)N(C1CCC(=O)NC1=O)C2=O` (stereo partly specified), for which the concentration for half-maximal inhibition (IC50) entry was “in the range around 0.55 µM”. `COc1cc(-c2cn(C)c(=O)c3cnccc23)cc(OC)c1CN1CC(S(=O)(=O)NCCCCCCCCNc2cccc3c2C(=O)N(C2CCC(=O)NC2=O)C3=O)C1` (stereo unspecified) had an IC50 of under 0.01 µM.

`COc1cc(-c2cn(C)c(=O)c3cnccc23)cc(OC)c1CN1CC(C(=O)NCCCCCCCCNc2cccc3c2C(=O)N(C2CCC(=O)NC2=O)C3=O)C1` (stereo unspecified): the concentration for half-maximal inhibition (IC50) is under 0.01 µM. `COc1cc(-c2cn(C)c(=O)c3cnccc23)cc(OC)c1CN1CCC2(CC1)CN(C(=O)CCCCOc1cccc3c1C(=O)N(C1CCC(=O)NC1=O)C3=O)CCO2` (stereo unspecified) registered a half-maximal inhibitory concentration (IC50) of under 0.01 µM.

As to `COc1cc(-c2cn(C)c(=O)c3cnccc23)cc(OC)c1CN(C)CCCOCCN1CCN(c2ccc3c(c2)C(=O)N(C2CCC(=O)NC2=O)C3=O)CC1` (stereo unspecified), the half-maximal inhibitory concentration (IC50) result is “in the range around 0.055 µM”. Regarding `COc1cc(-c2cn(C)c(=O)c3cnccc23)cc(OC)c1CN1CC(C)(C(=O)NCCCCCCCCNc2cccc3c2C(=O)N(C2CCC(=O)NC2=O)C3=O)C1` (stereo unspecified), the IC50 is under 0.01 µM.

As for `COc1cc(-c2cn(C)c(=O)c3cnccc23)cc(OC)c1CN(C)C12CC(C(=O)NCCOCCOCCNc3cccc4c3C(=O)N(C3CCC(=O)NC3=O)C4=O)(C1)C2` (stereo unspecified), the IC50 is under 0.01 µM. As to `COc1cc(-c2cn(C)c(=O)c3cnccc23)cc(OC)c1CN1CC[C@H]1C(=O)NCCN(C)CCNC(=O)COc1ccc2c(c1)C(=O)N(C1CCC(=O)NC1=O)C2=O` (stereo partly specified), the IC50 is over 1 µM. To `COc1cc(-c2cn(C)c(=O)c3cnccc23)cc(OC)c1CN1CC2(C1)CN(C(=O)COc1cccc3c1C(=O)N(C1CCC(=O)NC1=O)C3=O)C2` (stereo unspecified) belongs “in the range around 0.55 µM”; to `COc1cc(-c2cn(C)c(=O)c3cnccc23)cc(OC)c1CN(C)CC12CC(NC(=O)CCCCOc3cccc4c3C(=O)N(C3CCC(=O)NC3=O)C4=O)(C1)C2` (stereo unspecified), under 0.01 µM; to `COc1cc(-c2cn(C)c(=O)c3cnccc23)cc(OC)c1CN1CC(C(=O)NCCCCCCCCNc2cccc3c2C(=O)N(C2CCC(=O)N(C)C2=O)C3=O)C1` (stereo unspecified), over 1 µM. For `COc1cc(-c2cn(C)c(=O)c3cnccc23)cc(OC)c1CN1CCN(C(=O)C2CC2CNC(=O)COc2cccc3c2C(=O)N(C2CCC(=O)NC2=O)C3=O)CC1` (stereo unspecified), the IC50 entry was “in the range around 0.55 µM”. Next, `COc1cc(-c2cn(C)c(=O)c3cnccc23)cc(OC)c1CNCCCN1CC(Oc2ccc3c(c2)C(=O)N(C2CCC(=O)NC2=O)C3=O)C1` (stereo unspecified): “in the range around 0.055 µM”; `COc1cc(-c2cn(C)c(=O)c3cnccc23)cc(OC)c1CN(C)CCCN1CCC(Oc2ccc3c(c2)C(=O)N(C2CCC(=O)NC2=O)C3=O)CC1` (stereo unspecified): under 0.01 µM; `COc1cc(-c2cn(C)c(=O)c3cnccc23)cc(OC)c1CN1CC[C@H]1CN(C)Cc1cccc2c1C(=O)N(C1CCC(=O)NC1=O)C2=O` (stereo partly specified): “in the range around 0.055 µM”. `COc1cc(-c2cn(C)c(=O)c3cnccc23)cc(OC)c1CN(C)C12CC(NC(=O)CCOCCOCCNc3cccc4c3C(=O)N(C3CCC(=O)NC3=O)C4=O)(C1)C2` (stereo unspecified): the IC50 was under 0.01 µM.

On to `COc1cc(-c2cn(C)c(=O)c3cnccc23)cc(OC)c1CN(C)Cc1cn(-c2ccc3c(c2)C(=O)N(C2CCC(=O)NC2=O)C3=O)nn1` (stereo unspecified), for which the IC50 entry is “in the range around 0.55 µM”. For `COc1cc(-c2cn(C)c(=O)c3cc(O)ccc23)cc(OC)c1CN1CCC2(CC1)CN(C(=O)CCCOc1cccc3c1C(=O)N(C1CCC(=O)NC1=O)C3=O)CCO2` (stereo unspecified), the IC50 entry is “in the range around 0.055 µM”. Regarding `COc1cc(-c2cn(C)c(=O)c3cnccc23)cc(OC)c1CN1CCCC(OCc2cn(CCCCOc3ccc4c(c3)C(=O)N(C3CCC(=O)NC3=O)C4=O)nn2)C1` (stereo unspecified), the half-maximal inhibitory concentration (IC50) result was “in the range around 0.055 µM”.

In the case of `COc1cc(-c2cn(C)c(=O)c3cnccc23)cc(OC)c1CN1CC(S(=O)(=O)NCCOCCOCCNc2cccc3c2C(=O)N(C2CCC(=O)NC2=O)C3=O)C1` (stereo unspecified), the IC50 is under 0.01 µM.

With `COc1cc(-c2cn(C)c(=O)c3cnccc23)cc(OC)c1CN1CC2(C1)CN(C(=O)CCCOc1cccc3c1C(=O)N(C1CCC(=O)NC1=O)C3=O)C2` (stereo unspecified), the half-maximal inhibitory concentration (IC50) result is “in the range around 0.055 µM”.

As to `COc1cc(-c2cn(C)c(=O)c3cnccc23)cc(OC)c1CN(C)C12CC(NC(=O)CCCCCOc3cccc4c3C(=O)N(C3CCC(=O)NC3=O)C4=O)(C1)C2` (stereo unspecified), the IC50 was under 0.01 µM.

Take `COc1cc(-c2cn(C)c(=O)c3cnccc23)cc(OC)c1CN1CC(C(=O)N2CCC(C3CCN(C(=O)COc4cccc5c4C(=O)N(C4CCC(=O)NC4=O)C5=O)CC3)CC2)C1` (stereo unspecified): the half-inhibitory concentration (IC50) is under 0.01 µM. For `COc1cc(-c2cn(C)c(=O)c3cnccc23)cc(OC)c1CN1CC(C(=O)NCCCCCCCCNC(=O)COc2cccc3c2C(=O)N(C2CCC(=O)NC2=O)C3=O)C1` (stereo unspecified), the IC50 entry was “in the range around 0.055 µM”. The compound `COc1cc(-c2cn(C)c(=O)c3cnccc23)cc(OC)c1CN1CC(C(=O)NCCCCCNc2cccc3c2C(=O)N(C2CCC(=O)NC2=O)C3=O)C1` (stereo unspecified) yielded an IC50 of under 0.01 µM. As for `COc1cc(-c2cn(C)c(=O)c3cnccc23)cc(OC)c1CN1CC(OCc2cn(CCOc3ccc4c(c3)C(=O)N(C3CCC(=O)NC3=O)C4=O)nn2)C1` (stereo unspecified), the IC50 entry is “in the range around 0.055 µM”.

Take `COc1cc(-c2cn(C)c(=O)c3cnccc23)cc(OC)c1CN1CC(NC(=O)CCCCCOc2cccc3c2C(=O)N(C2CCC(=O)NC2=O)C3=O)C1` (stereo unspecified): the IC50 result was “in the range around 0.055 µM”. As for `COc1cc(-c2cn(C)c(=O)c3cnccc23)cc(OC)c1CN1CC(S(=O)(=O)NCCCCNc2ccc3c(c2)C(=O)N(C2CCC(=O)NC2=O)C3=O)C1` (stereo unspecified), the IC50 result is “in the range around 0.055 µM”.

Regarding `COc1cc(-c2cn(C)c(=O)c3cnccc23)cc(OC)c1CN1CCN(C(=O)CCCOc2cccc3c2C(=O)N(C2CCC(=O)NC2=O)C3=O)CC1` (stereo unspecified), the half-maximal inhibitory concentration (IC50) is under 0.01 µM.

On to `COc1cc(-c2cn(C)c(=O)c3cnccc23)cc(OC)c1CN1CCN(C(=O)C2CC2CNC(=O)COc2ccc3c(c2)C(=O)N(C2CCC(=O)NC2=O)C3=O)CC1` (stereo unspecified), for which the IC50 entry is “in the range around 0.55 µM”. To `COc1cc(-c2cn(C)c(=O)c3cnccc23)cc(OC)c1CN1CCC2(CC1)CN(C(=O)CCCOc1cccc3c1C(=O)N(C1CCC(=O)NC1=O)C3=O)CCO2` (stereo unspecified) belongs under 0.01 µM. The compound `COc1cc(-c2cn(C)c(=O)c3cnccc23)cc(OC)c1CN1CC(S(=O)(=O)NCCCCCCNc2ccc3c(c2)C(=O)N(C2CCC(=O)NC2=O)C3=O)C1` (stereo unspecified) yielded an IC50 of under 0.01 µM. To `COc1cc(-c2cn(C)c(=O)c3cnccc23)cc(OC)c1CN1CCC2(CC1)CN(C(=O)COc1cccc3c1C(=O)N(C1CCC(=O)NC1=O)C3=O)CCO2` (stereo unspecified) belongs “in the range around 0.055 µM”. With `COc1cc(-c2cn(C)c(=O)c3cnccc23)cc(OC)c1CN1CC(S(=O)(=O)NCCCCCNc2ccc3c(c2)C(=O)N(C2CCC(=O)NC2=O)C3=O)C1` (stereo unspecified), the IC50 was under 0.01 µM.

Consider `COc1cc(-c2cn(C)c(=O)c3cnccc23)cc(OC)c1CN(C)CC12CC(NC(=O)CCOCCOCCNc3cccc4c3C(=O)N(C3CCC(=O)NC3=O)C4=O)(C1)C2` (stereo unspecified), for which the IC50 result was “in the range around 0.55 µM”. On to `COc1cc(-c2cn(C)c(=O)c3cnccc23)cc(OC)c1CN1CCN(CCCOc2ccc3c(c2)C(=O)N(C2CCC(=O)NC2=O)C3=O)CC1` (stereo unspecified), for which the IC50 is under 0.01 µM. `COc1cc(-c2cn(C)c(=O)c3cnccc23)cc(OC)c1CN1CC2(C1)CN(C(=O)CCCCOc1cccc3c1C(=O)N(C1CCC(=O)NC1=O)C3=O)C2` (stereo unspecified) came in with a half-maximal inhibitory concentration (IC50) of under 0.01 µM. `COc1cc(-c2cn(C)c(=O)c3cnccc23)cc(OC)c1CN1CCN(C(=O)COc2cccc3c2C(=O)N(C2CCC(=O)NC2=O)C3=O)CC1` (stereo unspecified) had an IC50 of under 0.01 µM. `COc1cc(-c2cn(C)c(=O)c3cnccc23)cc(OC)c1CN1CC[C@@H]1C(=O)NCCCCCCCCNc1cccc2c1C(=O)N(C1CCC(=O)NC1=O)C2=O` (stereo partly specified) gave a half-maximal inhibitory concentration (IC50) of under 0.01 µM.

Regarding `COc1cc(-c2cn(C)c(=O)c3cnccc23)cc(OC)c1CN1CC(C(=O)NCCOCCOCCNc2cccc3c2C(=O)N(C2CCC(=O)NC2=O)C3=O)C1` (stereo unspecified), the half-inhibitory concentration (IC50) entry was “in the range around 0.055 µM”. `COc1cc(-c2cn(C)c(=O)c3cnccc23)cc(OC)c1CN1CC(C(=O)N(C)CCCCCNc2cccc3c2C(=O)N(C2CCC(=O)NC2=O)C3=O)C1` (stereo unspecified) displayed an IC50 of under 0.01 µM.

Consider `COc1cc(-c2cn(C)c(=O)c3cnccc23)cc(OC)c1CN(C)C12CC(C(=O)NCCCCCNc3cccc4c3C(=O)N(C3CCC(=O)NC3=O)C4=O)(C1)C2` (stereo unspecified), for which the IC50 is under 0.01 µM. Turning to `COc1cc(-c2cn(C)c(=O)c3cnccc23)cc(OC)c1CN1CCC2(CC1)CN(C(=O)COc1ccc3c(c1)C(=O)N(C1CCC(=O)NC1=O)C3=O)CCO2` (stereo unspecified), the 50% inhibitory concentration (IC50) entry is “in the range around 0.55 µM”.

As usually defined, the IC50 is the concentration at which inhibition is half-maximal. Lower therefore signals inhibition by little substance.
